Assay results taken from patent US8110570B2, “Modulators of acetyl-coenzyme A carboxylase and methods of use thereof” (Cropsolution, Inc., priority 2008, dated 2012).
pIC50: −log10 of the molar value.

Key:
hACC2 = biological target: T1, hACC2 (Homo sapiens, UniProt O00763); assay: [14C]bicarbonate incorporation assay, overall ACC activity; type: biochemical; conditions: recombinant hACC2, overall ACC activity
T1 construct: delete amino acids 1-148 and add Met-Gly in front of Lys149 in the final product; His tag (C); made in house; host or cells: baculovirus, Sf9 insect cells
Experimental: (§1) In vitro IC50 values of human ACC were determined using recombinant enzyme produced by standard procedures. For example, full-length cDNAs for both the human isoforms (hACC1 and hACC2) were each cloned and expressed as a recombinant protein using a baculovirus system. Double stranded cDNA from human fetal liver (Quick-Clone cDNA, cat. #7171-1) was purchased from BD/Clontech (Mt. View, Calif.). PCR primers were designed for full-length hACC1 and hACC2 using GenBank submissions AY237919 and AJ575592, respectively. The Advantage GC 2 PCR kit (BD/Clontech) was used for amplification. The PCR products (about 7 Kb) were TOPO-cloned into the pCR4Blunt vector (Invitrogen, Carlsbad, Calif.), and 6 clones of each gene were isolated. […] Full length versions of the two cDNAs corresponding to their respective Genbank sequences were assembled in pBluescript SK+ (Stratagene, La Jolla, Calif.) by combining error-free fragments from the PCR clones. The resulting hACC1 clone, designated pCS35, has six silent nucleotide differences compared to Genbank accession AY237919. The final hACC2 clone, designated pCS36, has ten silent nucleotide differences compared to Genbank accession AJ575592. Primers were designed to PCR amplify the cDNAs along with the in-frame 3′-his tag sequences from the pET vector and TOPO-cloned the resulting products into the Gateway® entry vector pENTR/D-TOPO. The ACC2 primers were designed to delete amino acids 1-148 and add Met-Gly in front of Lys149 in the final product. The resulting entry clones were transferred to BaculoDirect™ linear DNA (Invitrogen corp.) using the Gateway® LR recombination reaction. The recombinant baculovirus DNA was transfected into insect cells and viral amplification was performed according to the manufacturer's protocols. For protein expression sf9 cells were infected with a P3 viral stock in the presence of 50 uM biotin. The cells were harvested after 48-72 hr, lysed by sonication, and the resulting extract was clarified by centrifugation. ACC in the crude extract was concentrated by ammonium sulfate precipitation (40% w/v) and purified by Ni^2+-NTA chromatography (Novagen) followed by anion exchange chromatography on a UNO-Q column (BioRad).
(§2) Overall ACC activity in the hACC preparations is measured by following incorporation of [^14C]bicarbonate into […] essentially as described (Thumpy and Wakil, J Biol Chem 260, 6318-6323 (1985). Briefly, the reaction mixture (50 μL) contains: 50 mM Hepes (pH7.4), 20 mM K-Citrate, 20 mM Mg-Acetate 1.5 mM MgSO4, 2 mM DTT, 2 mM acetyl-CoA, 12 mM NaHCO3, 0.2 mM NaH^14CO3 (˜50 mCi/mmol), 0.01% (v/v) Triton X-100, 0.75 mg/mL BSA, 1% (v/v) DMSO (with or without inhibitor), and 0.3 μg (hACC1) or 0.15 μg (hACC2) enzyme. Reactions are initiated by the addition of ATP to a final concentration 2 mM. After 10 minutes at 37° C., the reaction is stopped by the addition of 2N HCl (50 μL). The samples are evaporated in a hood overnight, resuspended in H2O (200 μL), and incorporated label is quantified by scintillation counting in scintillation cocktail (3 mL). Inhibition data are fit to dose-response curves and IC50 values are reported (i.e. the concentration of inhibitor that gives 50% inhibition).

hACC1 = biological target: T2, hACC1 (Homo sapiens, UniProt Q13085); assay: as above; type: biochemical; conditions: recombinant hACC1, overall ACC activity
T2 construct: PCR primers were designed for full-length hACC1 and hACC2 using GenBank submissions AY237919 and AJ575592, respectively; His tag (C); made in house; host or cells: baculovirus, Sf9 insect cells
Experimental: as §1, §2

[1] = system: A2780 human ovary cancer cells; assay: MTT Cell Proliferation Assay; type: cell-based; conditions: 72 hours, read-out: Percent of Control A2780
Experimental: (§3) The anti-proliferative activity of test compounds against human tumor cell lines is evaluated in vitro using the ATCC's MTT Cell Proliferation Assay (Catalog No. 30-100K). Cell lines are grown using media, serum, and culture conditions recommended by the ATCC. Stock cultures are allowed to grow to 70-80% confluence. Cells are seeded into 96-well culture plates at a predetermined density on day 0 in complete medium (0.1 mL). Plates are placed in a humidified incubator at 37° C. with 5% CO2 and 95% HEPA filtered room air for 24 hours. At this point compound (0.1 mL of 2× stock (in media)) is added to the indicated wells and the plates are returned to the incubator for 72 hours. Cell proliferation is measured by addition of MTT reagent to each well and incubated for an additional 4 hours, followed by addition of cell lysis/MTT solublization reagent and incubating overnight. […] Results are expressed as percent of control cells versus compound concentration. Compounds of the present invention, and salts thereof, were evaluated for anti-proliferative activity as described above.

[2] = system: MDA-MB-231 human breast cancer cells; assay: MTT Cell Proliferation Assay; type: cell-based; conditions: 72 hours, read-out: Percent of Control MDA-MB-231
Experimental: as §3

[3] = system: HCT-116 human colon cancer cells; assay: MTT Cell Proliferation Assay; type: cell-based; conditions: 72 hours, read-out: Percent of Control HCT-116
Experimental: as §3

[4] = system: PC-3 human prostate cancer cells; assay: MTT Cell Proliferation Assay; type: cell-based; conditions: 72 hours, read-out: Percent of Control PC-3
Experimental: as §3

T1 sequence (O00763 149-2458 limits assumed): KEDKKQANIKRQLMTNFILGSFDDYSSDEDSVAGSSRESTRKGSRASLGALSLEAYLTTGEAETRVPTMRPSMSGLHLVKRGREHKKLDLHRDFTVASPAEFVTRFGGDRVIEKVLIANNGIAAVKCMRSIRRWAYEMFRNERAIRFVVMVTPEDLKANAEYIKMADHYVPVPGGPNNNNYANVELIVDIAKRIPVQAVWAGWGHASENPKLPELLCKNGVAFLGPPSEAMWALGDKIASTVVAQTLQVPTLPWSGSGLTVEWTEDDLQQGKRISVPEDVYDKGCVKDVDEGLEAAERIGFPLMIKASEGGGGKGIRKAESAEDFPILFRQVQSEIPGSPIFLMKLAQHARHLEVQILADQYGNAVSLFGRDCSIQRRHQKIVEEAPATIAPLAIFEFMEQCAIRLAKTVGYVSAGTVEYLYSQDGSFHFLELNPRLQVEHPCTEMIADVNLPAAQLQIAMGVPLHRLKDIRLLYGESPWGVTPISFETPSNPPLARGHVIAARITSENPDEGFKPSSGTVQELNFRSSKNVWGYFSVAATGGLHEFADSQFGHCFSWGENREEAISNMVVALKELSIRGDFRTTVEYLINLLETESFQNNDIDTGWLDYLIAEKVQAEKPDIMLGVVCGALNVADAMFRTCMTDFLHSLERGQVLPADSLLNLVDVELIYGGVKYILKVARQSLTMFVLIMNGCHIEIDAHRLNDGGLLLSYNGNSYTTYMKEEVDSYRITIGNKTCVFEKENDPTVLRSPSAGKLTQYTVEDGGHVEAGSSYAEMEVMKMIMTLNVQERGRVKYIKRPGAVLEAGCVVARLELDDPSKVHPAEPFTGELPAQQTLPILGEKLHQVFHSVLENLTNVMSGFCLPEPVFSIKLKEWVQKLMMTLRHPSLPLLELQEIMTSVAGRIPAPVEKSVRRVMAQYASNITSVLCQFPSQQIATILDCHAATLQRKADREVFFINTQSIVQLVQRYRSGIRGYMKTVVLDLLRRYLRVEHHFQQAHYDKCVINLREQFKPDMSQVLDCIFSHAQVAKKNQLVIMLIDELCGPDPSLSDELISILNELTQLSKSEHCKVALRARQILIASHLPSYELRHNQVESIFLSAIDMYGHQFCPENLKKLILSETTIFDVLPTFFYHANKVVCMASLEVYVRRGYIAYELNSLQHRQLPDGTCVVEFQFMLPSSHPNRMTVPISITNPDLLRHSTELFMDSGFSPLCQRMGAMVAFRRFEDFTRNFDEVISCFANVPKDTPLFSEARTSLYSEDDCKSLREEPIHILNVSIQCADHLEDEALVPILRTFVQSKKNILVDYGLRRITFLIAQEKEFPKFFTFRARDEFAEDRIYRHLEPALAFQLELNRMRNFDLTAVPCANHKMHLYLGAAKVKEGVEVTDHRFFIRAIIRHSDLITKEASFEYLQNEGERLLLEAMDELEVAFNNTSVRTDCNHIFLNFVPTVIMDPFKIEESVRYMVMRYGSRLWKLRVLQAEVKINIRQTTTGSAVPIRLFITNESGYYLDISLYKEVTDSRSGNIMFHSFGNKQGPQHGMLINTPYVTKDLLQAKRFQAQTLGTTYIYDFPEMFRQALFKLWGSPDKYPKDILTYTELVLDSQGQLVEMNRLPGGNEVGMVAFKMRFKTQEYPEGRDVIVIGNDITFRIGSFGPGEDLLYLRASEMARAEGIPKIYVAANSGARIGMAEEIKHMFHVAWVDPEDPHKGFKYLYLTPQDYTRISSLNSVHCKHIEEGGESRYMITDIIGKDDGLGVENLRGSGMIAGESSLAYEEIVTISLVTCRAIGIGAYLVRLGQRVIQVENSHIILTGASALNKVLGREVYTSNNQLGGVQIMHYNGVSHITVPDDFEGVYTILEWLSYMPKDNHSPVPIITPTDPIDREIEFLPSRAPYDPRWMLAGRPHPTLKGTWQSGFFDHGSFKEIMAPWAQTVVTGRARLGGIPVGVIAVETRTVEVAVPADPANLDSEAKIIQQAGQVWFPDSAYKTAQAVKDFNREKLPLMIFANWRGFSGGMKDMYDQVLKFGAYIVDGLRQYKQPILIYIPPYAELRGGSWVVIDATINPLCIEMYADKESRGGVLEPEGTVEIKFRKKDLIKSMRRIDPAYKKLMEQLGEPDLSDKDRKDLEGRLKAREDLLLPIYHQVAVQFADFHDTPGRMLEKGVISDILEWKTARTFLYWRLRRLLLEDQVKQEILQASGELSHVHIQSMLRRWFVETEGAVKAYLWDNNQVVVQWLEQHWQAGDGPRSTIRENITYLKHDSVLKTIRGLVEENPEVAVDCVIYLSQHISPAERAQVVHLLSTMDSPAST

SMILES | pIC50 (hACC2) | pIC50 (hACC1) | other results
COc1cc2c(OC)cccc2cc1C(=O)N1CCC2(CC1)NC(=O)c1cc(Cl)ccc1O2 [Compound 131, 6-Chloro-1′-[(3,5-dimethoxynaphth-2-yl)carbonyl]spiro[2H-1,3-benzoxazin-2,4′-piperidin]-4-(3H)-one] | 6.35 | 5.72 | –
COc1cc2c(OC)cccc2cc1C(=O)N1CCC2(CC1)NC(=O)c1cc(NC(C)=O)ccc1O2 [Compound 132, 6-Acetamido-1′-[(3,5-dimethoxynaphth-2-yl)carbonyl]spiro[2H-1,3-benzoxazin-2,4′-piperidin]-4-(3H)-one] | 6.52 | 6.10 | –
COc1cc(C(=O)N2CCC3(CC2)NC(=O)c2cc(Br)ccc2O3)nc2c(SC)cccc12 [Compound 133] | 6.96 | 6.85 | –
COc1cc(C(=O)N2CCC3(CC2)NC(=O)c2cc(NC(C)=O)ccc2O3)nc2c(SC)cccc12 [Compound 136] | 7.26 | 7.12 | –
COc1cc(C(=O)N2CCC3(CC2)NC(=O)c2cc(C)ccc2O3)nc2c(OC)cccc12 [Compound 137] | 7.54 | 7.17 | –
COc1cc2c(OC)cccc2cc1C(=O)N1CCC2(CC1)Oc1ccc(Br)cc1C(=O)N2C [Compound 138, 6-Bromo-1′-[(3,5-dimethoxynaphth-2-yl)carbonyl]-3-methylspiro[2H-1,3-benzoxazin-2,4′-piperidin]-4-(3H)-one] | 6.06 | 5.92 | –
COc1cccc2c(C)c(C(=O)N3CCC4(CC3)NC(=O)c3cc(C)ccc3O4)[nH]c12 [Compound 143] | 6.72 | 6.89 | –
COc1cc(C(=O)N2CCC3(CC2)NC(=O)c2cc(C)ccc2O3)nc2c(SC)cccc12 [Compound 148] | 7.18 | 7.06 | –
CCOc1ccc2c(c1)C(=O)NC1(CCN(C(=O)c3cc(OC)c4cccc(SC)c4n3)CC1)O2 [Compound 149] | 7.60 | 7.46 | –
COc1ccc2c(c1)C(=O)NC1(CCN(C(=O)c3[nH]c4c(OC)cccc4c3C)CC1)O2 [Compound 151] | 7.02 | 7.09 | activity at 3.3 µM [1]: 92.7%; activity at 10 µM [1]: 64%; activity at 3.3 µM [2]: 82.9%; activity at 10 µM [2]: 50.1%; activity at 3.3 µM [3]: 78.6%; activity at 10 µM [3]: 61.8%; activity at 3.3 µM [4]: 86.1%; activity at 10 µM [4]: 68.5%
COc1ccc2c(c1)C(=O)NC1(CCN(C(=O)c3cc(OC)c4cccc(OC)c4c3)CC1)O2 [Compound 152, 1′-[(4,8-Dimethoxynaphth-2-yl)carbonyl]-6-methoxyspiro[2H-1-1,3-benzoxazin-2,4′-piperidin]-4-(3H)-one] | 8.52 | 8.40 | activity at 3.3 µM [1]: 84.1%; activity at 10 µM [1]: 56.9%; activity at 3.3 µM [2]: 57%; activity at 10 µM [2]: 25.7%; activity at 3.3 µM [3]: 53.3%; activity at 10 µM [3]: 42%; activity at 3.3 µM [4]: 88%
COc1cc(C(=O)N2CCC3(CC2)NC(=O)c2cc(C)c(C)cc2O3)nc2c(OC)cccc12 [Compound 153] | 7.80 | 7.46 | –
COc1cc(C(=O)N2CCC3(CC2)NC(=O)c2cc(C)c(C)cc2O3)nc2c(SC)cccc12 [Compound 154] | 7.57 | 7.52 | –
COc1cc(C(=O)N2CCC3(CC2)NC(=O)c2cc(C)c(C)cc2O3)cc2c(OC)cccc12 [Compound 155, 1′-[(4,8-Dimethoxynaphth-2-yl)carbonyl]-6,7-dimethylspiro[2H-1,3-benzoxazin-2,4′-piperidin]-4-(3H)-one] | 8.40 | 8.30 | –
COc1ccc2c(c1)C(=O)NC1(CCN(C(=O)c3cc(OC)c4cccc(SC)c4n3)CC1)O2 [Compound 157] | 7.32 | 7.48 | –
COc1cc(C(=O)N2CCC3(CC2)NC(=O)c2cc4ccccc4cc2O3)nc2c(OC)cccc12 [Compound 159] | 8.30 | 8.40 | –
COc1cc(C(=O)N2CCC3(CC2)NC(=O)c2cc4ccccc4cc2O3)cc2c(OC)cccc12 [Compound 160] | 8.52 | 8.40 | –
COc1ccc2cc3c(cc2c1)C(=O)NC1(CCN(C(=O)c2cc(OC)c4cccc(OC)c4n2)CC1)O3 [Compound 164] | 8.40 | 8.40 | activity at 3.3 µM [1]: 73.1%; activity at 10 µM [1]: 46%; activity at 3.3 µM [2]: 47.6%; activity at 10 µM [2]: 13.9%; activity at 3.3 µM [3]: 54%; activity at 10 µM [3]: 43.5%; activity at 3.3 µM [4]: 68%
COc1ccc2cc3c(cc2c1)C(=O)NC1(CCN(C(=O)c2[nH]c4c(OC)cccc4c2C)CC1)O3 [Compound 166, 7-Methoxy-1′-[[7-methoxy-3-methyl-1H-indol-2-yl)carbonyl]spiro[2H-naphtho[2,3-e]-1,3-oxazin-2,4′-piperidin]-4-(3H)-one] | 7.51 | 7.44 | –
COc1cc(C(=O)N2CCC3(CC2)NC(=O)c2cc(Cl)ccc2O3)cc2c(OC)cccc12 [Compound 171] | 7.85 | 7.55 | –
COc1ccc(OC)c2c1cc(C(=O)N1CCC3(CC1)NC(=O)c1cc(OC(C)C)ccc1O3)n2C [Compound 185] | 7.08 | 7.05 | –
COc1ccc2c(c1)C(=O)NC1(CCN(C(=O)c3cc(OC)c4cccc(OC)c4c3)CC1)N2 [Compound 187] | – | 7.06 | activity at 3.3 µM [1]: 102%; activity at 10 µM [1]: 64.9%; activity at 3.3 µM [2]: 80.8%; activity at 10 µM [2]: 45.6%; activity at 3.3 µM [3]: 71%; activity at 10 µM [3]: 56.1%; activity at 3.3 µM [4]: 69.9%; activity at 10 µM [4]: 52.2%
COc1ccc2c(c1)C(=O)NC1(CCN(C(=O)c3cc(OC)c4cccc(OC)c4n3)CC1)N2 [Compound 188] | – | 6.59 | activity at 3.3 µM [1]: 94.8%; activity at 10 µM [1]: 51.4%; activity at 3.3 µM [2]: 70.3%; activity at 10 µM [2]: 28.7%; activity at 3.3 µM [3]: 90.3%; activity at 10 µM [3]: 68.2%; activity at 3.3 µM [4]: 62.6%; activity at 10 µM [4]: 19%
COc1cc(C(=O)N2CCC3(CC2)NC(=O)c2cc(OC(C)C)ccc2O3)cc2[nH]ncc12 [Compound 230] | 7.07 | 6.96 | –
COc1cc(C(=O)N2CCC3(CC2)NC(=O)c2cc(C(C)C)ccc2O3)cc2[nH]ncc12 [Compound 231] | 7.48 | 7.33 | –
